Target: HSD17B13 (Homo sapiens (Human), UniProt Q7Z5P4)
Assay: HSD17B13 enzymatic inhibition assay (150 nM or 50 nM HSD17B13)
Assay type: biochemical
Details: 50 nM HSD17B13; read-out: Inhibition of 50 nM of HSD17B13 IC50

HSD17B13, sequence (Q7Z5P4 other isoform, or with tags, fused parts or gaps): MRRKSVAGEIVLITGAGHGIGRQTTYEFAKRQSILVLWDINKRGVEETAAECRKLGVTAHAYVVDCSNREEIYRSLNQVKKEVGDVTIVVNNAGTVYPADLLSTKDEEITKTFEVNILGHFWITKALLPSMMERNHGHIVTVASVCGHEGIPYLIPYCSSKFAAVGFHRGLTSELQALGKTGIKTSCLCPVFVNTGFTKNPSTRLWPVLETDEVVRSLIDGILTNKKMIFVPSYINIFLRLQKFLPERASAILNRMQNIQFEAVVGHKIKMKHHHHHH

Compound | IC50 [µM]
O=C(NC(c1ccccc1)C1CCCCC1)c1ccc(C(F)(F)F)[nH]c1=O (stereo not drawn) [Compound 58, N-(cyclohexyl(phenyl)methyl)-2-oxo-6-(trifluoromethyl)-1,2-dihydropyridine-3-carboxamide] | 2.89
O=C(NC1c2ccccc2-c2ccccc21)c1cnc(Cc2ccccc2)[nH]c1=O [Compound 59, 2-benzyl-N-(9H-fluoren-9-yl)-6-oxo-1,6-dihydropyrimidine-5-carboxamide] | > 10
O=C(Nc1cc(-c2ccccc2)cc(-c2ccccc2)c1)c1ccc(C(F)(F)F)[nH]c1=O [Compound 60, N-([1,1′:3′,1″-terphenyl]-5′-yl)-2-oxo-6-(trifluoromethyl)-1,2-dihydropyridine-3-carboxamide] | > 10
Cc1ccc(C(NC(=O)c2ccc(C(F)F)[nH]c2=O)c2ccc(C)cc2)cc1 [Compound 61, N-(di-p-tolylmethyl)-6-(difluoromethyl)-2-oxo-1,2-dihydropyridine-3-carboxamide] | 2.25
CC(=O)Nc1ccc(C(NC(=O)c2ccc(C(F)(F)F)[nH]c2=O)c2ccccc2)cc1 (stereo not drawn) [Compound 66, N-((4-acetamidophenyl)(phenyl)methyl)-2-oxo-6-(trifluoromethyl)-1,2-dihydropyridine-3-carboxamide] | 7.22
O=C(NC(c1ccc(Cl)cc1)c1ccccn1)c1ccc(C(F)(F)F)[nH]c1=O (stereo not drawn) [Compound 67, N-((4-chlorophenyl)(pyridin-2-yl)methyl)-2-oxo-6-(trifluoromethyl)-1,2-dihydropyridine-3-carboxamide] | 2.27
O=C(NC(c1ccncc1)c1ccc(Cl)cc1)c1ccc(C(F)(F)F)[nH]c1=O (stereo not drawn) [Compound 68, N-((4-chlorophenyl)(pyridin-4-yl)methyl)-2-oxo-6-(trifluoromethyl)-1,2-dihydropyridine-3-carboxamide] | 2.53
O=C(NC(c1ccc(Cl)cc1)c1cccnc1)c1ccc(C(F)(F)F)[nH]c1=O (stereo not drawn) [Compound 69, N-((4-chlorophenyl)(pyridin-3-yl)methyl)-2-oxo-6-(trifluoromethyl)-1,2-dihydropyridine-3-carboxamide] | 2.59
O=C(NC(c1ccc(Cl)cc1)c1cnccn1)c1ccc(C(F)(F)F)[nH]c1=O (stereo not drawn) [Compound 70, N-((4-chlorophenyl)(pyrazin-2-yl)methyl)-2-oxo-6-(trifluoromethyl)-1,2-dihydropyridine-3-carboxamide] | > 10
O=C(NC(c1ccc(Cl)cc1)c1ncccn1)c1ccc(C(F)(F)F)[nH]c1=O (stereo not drawn) [Compound 71, N-((4-chlorophenyl)(pyrimidin-2-yl)methyl)-2-oxo-6-(trifluoromethyl)-1,2-dihydropyridine-3-carboxamide] | 5.85
O=C(NC(c1ccccc1)c1cccc(Br)n1)c1ccc(C(F)(F)F)[nH]c1=O (stereo not drawn) [Compound 72, N-((6-bromopyridin-2-yl)(phenyl)methyl)-2-oxo-6-(trifluoromethyl)-1,2-dihydropyridine-3-carboxamide] | 7.05
O=C(NC(c1ccncc1)c1ccncc1)c1ccc(C(F)(F)F)[nH]c1=O [Compound 73, N-(di(pyridin-4-yl)methyl)-2-oxo-6-(trifluoromethyl)-1,2-dihydropyridine-3-carboxamide] | > 10
O=C(Nc1ccc(C(NC(=O)c2ccc(C(F)(F)F)[nH]c2=O)c2ccccc2)cc1)c1ccccc1 (stereo not drawn) [Compound 75, N-((4-benzamidophenyl)(phenyl)methyl)-2-oxo-6-(trifluoromethyl)-1,2-dihydropyridine-3-carboxamide] | 1.87
O=C(NC(c1ccccc1)c1ccc(C2CCOCC2)cc1)c1ccc(C(F)(F)F)[nH]c1=O (stereo not drawn) [Compound 76, N-(phenyl(4-(tetrahydro-2H-pyran-4-yl)phenyl)methyl)-2-oxo-6-(trifluoromethyl)-1,2-dihydropyridine-3-carboxamide] | 1.7
O=C(NC(c1ccccc1OC(F)(F)F)c1ccccc1OC(F)(F)F)c1ccc(C(F)(F)F)[nH]c1=O [Compound 79, N-(bis(2-(trifluoromethoxy)phenyl)methyl)-2-oxo-6-(trifluoromethyl)-1,2-dihydropyridine-3-carboxamide] | 2.33
O=C(NC(c1ccccc1)c1ccc2c(c1)COCC2)c1ccc(C(F)(F)F)[nH]c1=O (stereo not drawn) [Compound 83, N-(isochroman-7-yl(phenyl)methyl)-2-oxo-6-(trifluoromethyl)-1,2-dihydropyridine-3-carboxamide] | 2.37

These reach a lower IC50. Values come first.

IC50 [µM] | Compound
1.48 | COc1ccc2c(c1)Oc1ccccc1C2NC(=O)c1ccc(C(F)(F)F)[nH]c1=O (stereo not drawn) [Compound 54, N-(3-methoxy-9H-xanthen-9-yl)-2-oxo-6-(trifluoromethyl)-1,2-dihydropyridine-3-carboxamide]
0.44 | COc1ccc2c(c1)Oc1cc(OC)ccc1C2NC(=O)c1ccc(C(F)(F)F)[nH]c1=O [Compound 56, N-(3,6-dimethoxy-9H-xanthen-9-yl)-2-oxo-6-(trifluoromethyl)-1,2-dihydropyridine-3-carboxamide]
0.46 | COc1ccc2c(c1)Oc1cccc(OC)c1C2NC(=O)c1ccc(C(F)(F)F)[nH]c1=O (stereo not drawn) [Compound 57, N-(1,6-dimethoxy-9H-xanthen-9-yl)-2-oxo-6-(trifluoromethyl)-1,2-dihydropyridine-3-carboxamide]
1.11 | Cc1cccc(C(NC(=O)c2ccc(C(F)(F)F)[nH]c2=O)c2cccc(C)c2)c1 [Compound 62, N-(di-m-tolylmethyl)-6-(trifluoromethyl)-2-oxo-1,2-dihydropyridine-3-carboxamide]
1.37 | O=C(Cc1ccccc1)Nc1ccc(C(NC(=O)c2ccc(C(F)(F)F)[nH]c2=O)c2ccccc2)cc1 (stereo not drawn) [Compound 74, N-(phenyl(4-(2-phenylacetamido)phenyl)methyl)-2-oxo-6-(trifluoromethyl)-1,2-dihydropyridine-3-carboxamide]
0.68 | O=C(NC(c1ccccc1)c1ccc(C2CCC2)cc1)c1ccc(C(F)(F)F)[nH]c1=O (stereo not drawn) [Compound 77, N-((4-cyclobutylphenyl)(phenyl)methyl)-2-oxo-6-(trifluoromethyl)-1,2-dihydropyridine-3-carboxamide]
1.34 | COc1ccc(C(NC(=O)c2c(C)cc(C(F)(F)F)[nH]c2=O)c2ccccc2)cc1 (stereo not drawn) [Compound 78, N-((4-methoxyphenyl)(phenyl)methyl)-4-methyl-2-oxo-6-(trifluoromethyl)-1,2-dihydropyridine-3-carboxamide]
1.09 | O=C(NC(c1ccccc1)c1ccc2c(c1)CCCO2)c1ccc(C(F)(F)F)[nH]c1=O (stereo not drawn) [Compound 81, N-(chroman-6-yl(phenyl)methyl)-2-oxo-6-(trifluoromethyl)-1,2-dihydropyridine-3-carboxamide]
0.84 | O=C(NC(c1ccccc1)c1ccc2c(c1)CCOC2)c1ccc(C(F)(F)F)[nH]c1=O (stereo not drawn) [Compound 82, N-(isochroman-6-yl(phenyl)methyl)-2-oxo-6-(trifluoromethyl)-1,2-dihydropyridine-3-carboxamide]
1.04 | O=C(NC(c1ccccc1)c1ccc2c(c1)OCC2)c1ccc(C(F)(F)F)[nH]c1=O (stereo not drawn) [Compound 84, N-((2,3-dihydrobenzofuran-6-yl)(phenyl)methyl)-2-oxo-6-(trifluoromethyl)-1,2-dihydropyridine-3-carboxamide]
0.84 | O=C(NC(c1ccccc1)c1ccc(-c2ccncc2)cc1)c1ccc(C(F)(F)F)[nH]c1=O (stereo not drawn) [Compound 85, 2-oxo-N-(phenyl(4-(pyridin-4-yl)phenyl)methyl)-6-(trifluoromethyl)-1,2-dihydropyridine-3-carboxamide]
